What was measured:
Experiment in all cases: Test Example 1: foliar application pot test, visual growth control rating
Type in all cases: in vivo
Design in all cases: key: 1: the same as in an untreated plot; 10: perfect growth control
Details in all cases: wettable powder, observed 20 to 31 days after application
soybean (Glycine max) = test system: soybean (Glycine max)
Source text: (§1) 1/1,500 are [are (a) = 100 m²] pots were filled with upland farming soil, which in the pots was then sown with a variety of plants. The plants grown will be enumerated below.
(§2) When each plant reached a given growth stage (a 1.2- to 3.0-leaf stage for rice, primary leaf to a 0.7-leaf stage for soybean, 2.1- to 3.6-leaf stage for corn, cotyledon to 0.7-leaf stage for cotton, 2.0- to 3.0-leaf stage for wheat, 0.3- to 3.4-leaf stage for cocklebur, 0.3- to 1.6-leaf stage for morning glory, 0.1- to 1.3-leaf stage for prickly sida, 0.1- to 1.3-leaf stage for slender amaranth, 1.5- to 3.2-leaf stage for barnyard glass, and 1.2- to 3.0-leaf stage for large crabgrass), a predetermined amount of the herbicide of the present invention in the form of a wettable powder, weighed out, diluted with 5 ℓ/a of water and admixed with 0.2 or 0.1 vol%, based on the resulting composition, of an agricultural spreader, was foliarly applied to the plant with a small spray gun. The progress of growth of the plant was visually observed 20 to 31 days after the foliar application to evaluate the degree of growth control according to 10 ratings (1: the same as in an untreated plot - 10: perfect growth control).

wheat (Triticum) = test system: wheat (Triticum)
Source text: as §1, §2

corn (Zea mays) = test system: corn (Zea mays)
Source text: as §1, §2

[1] = test system: large crabgrass (Digitaria adscendens)
Source text: as §1, §2

[2] = test system: slender amaranth (Amaranthus viridis)
Source text: as §1, §2

[3] = test system: morning glory (Ipomoea purpurea)
Source text: as §1, §2

[4] = test system: prickly sida (Sida spinosa)
Source text: as §1, §2

rice (Oryza sativa) = test system: rice (Oryza sativa)
Source text: as §1, §2

[5] = test system: barnyard grass (Echinochloa crus-galli)
Source text: as §1, §2

[6] = test system: cocklebur (Xanthium strumarium)
Source text: as §1, §2

SMILES	degree of growth control, TR (wheat (Triticum); 1.25 g/a active ingredient)	degree of growth control, ZE (corn (Zea mays); 1.25 g/a active ingredient)	degree of growth control, DI ([1]; 1.25 g/a active ingredient)	degree of growth control, AM ([2]; 1.25 g/a active ingredient)	degree of growth control, IP ([3]; 1.25 g/a active ingredient)	degree of growth control, OR (rice (Oryza sativa); 1.25 g/a active ingredient)	degree of growth control, EC ([5]; 1.25 g/a active ingredient)	degree of growth control, XA ([6]; 1.25 g/a active ingredient)	degree of growth control, XA ([6]; 0.31 g/a active ingredient)	degree of growth control, DI ([1]; 0.31 g/a active ingredient)	degree of growth control, IP ([3]; 0.31 g/a active ingredient)	degree of growth control, EC ([5]; 0.31 g/a active ingredient)	degree of growth control, ZE (corn (Zea mays); 0.31 g/a active ingredient)	also measured
CCCS(=O)(=O)N(C)c1cccc(S(=O)(=O)NC(=O)Nc2nc(C)nc(OC)n2)n1 [compound 39]	3	3	4	9	5	3	3	5						degree of growth control, GL (soybean (Glycine max); 1.25 g/a active ingredient): 4; degree of growth control, SI ([4]; 1.25 g/a active ingredient): 3
CCN(c1cccc(S(=O)(=O)NC(=O)Nc2nc(OC)nc(OC)n2)n1)S(=O)(=O)C(C)C [Compound No. 2, 6-[(N-ethyl-N-isopropylsulfonyl)amino]-N-[[(4,6-dimethoxytriazin-2-yl)amino]carbonyl]-2-pyridinesulfonamide]				10				10	10					degree of growth control, AM ([2]; 0.31 g/a active ingredient): 10
CCCN(c1cccc(S(=O)(=O)NC(=O)Nc2nc(OC)nc(OC)n2)n1)S(=O)(=O)CC [compound 8]	3	5	5	7	4	3	5	6						degree of growth control, GL (soybean (Glycine max); 1.25 g/a active ingredient): 4; degree of growth control, SI ([4]; 1.25 g/a active ingredient): 3
CCN(c1cccc(S(=O)(=O)NC(=O)Nc2nc(C)nc(OC)n2)n1)S(=O)(=O)C(C)F (racemic) [compound 58]	2		7							7				degree of growth control, GL (soybean (Glycine max); 0.31 g/a active ingredient): 1; degree of growth control, GL (soybean (Glycine max); 1.25 g/a active ingredient): 1; degree of growth control, TR (wheat (Triticum); 0.31 g/a active ingredient): 2
CCCCS(=O)(=O)N(c1cccc(S(=O)(=O)NC(=O)Nc2nc(C)nc(OC)n2)n1)C(C)CC (racemic) [compound 84]					6		5				6	5		
CCCN(c1cccc(S(=O)(=O)NC(=O)Nc2nc(OC)nc(OC)n2)n1)S(=O)(=O)C(C)C [Compound No. 5]							10	10	10			10		
CCN(c1cccc(S(=O)(=O)NC(=O)Nc2nc(C)nc(OC)n2)n1)S(=O)(=O)C(Br)(Br)Br [compound 90]			6				10	10	10	6		10		degree of growth control, SI ([4]; 0.31 g/a active ingredient): 6; degree of growth control, SI ([4]; 1.25 g/a active ingredient): 6
CCN(c1cccc(S(=O)(=O)NC(=O)Nc2nc(C)nc(OC)n2)n1)S(=O)(=O)C(Cl)Cl [compound 56]	10	10	10			9	10	10	10	10		10	10	degree of growth control, TR (wheat (Triticum); 0.31 g/a active ingredient): 10; degree of growth control, OR (rice (Oryza sativa); 0.31 g/a active ingredient): 9
CCC(C)N(c1cccc(S(=O)(=O)NC(=O)Nc2nc(C)nc(OC)n2)n1)S(=O)(=O)CC(C)C (racemic) [compound 80]			2		5			6	6	2	5			degree of growth control, SI ([4]; 0.31 g/a active ingredient): 3; degree of growth control, SI ([4]; 1.25 g/a active ingredient): 3
CCN(c1cccc(S(=O)(=O)NC(=O)Nc2nc(C)nc(OC)n2)n1)S(=O)(=O)C(Cl)(Cl)Cl [compound 91]	9				9	9		10	10		9			degree of growth control, TR (wheat (Triticum); 0.31 g/a active ingredient): 9; degree of growth control, OR (rice (Oryza sativa); 0.31 g/a active ingredient): 9
CCN(c1cccc(S(=O)(=O)NC(=O)Nc2nc(C)nc(OC)n2)n1)S(=O)(=O)C(C)Br (racemic) [compound 78]		10			10		10	10	10		10	10	10	
COc1nc(C)nc(NC(=O)NS(=O)(=O)c2cccc(N(C)S(=O)(=O)C(C)Cl)n2)n1 (racemic) [compound 85]		10					10					10	10	
CCN(c1cccc(S(=O)(=O)NC(=O)Nc2nc(C)nc(OC)n2)n1)S(=O)(=O)C(C)(C)Cl [compound 87]								10	10					
COc1nc(C)nc(NC(=O)NS(=O)(=O)c2cccc(N(C)S(=O)(=O)C(Br)(Br)Br)n2)n1 [compound 89]			7					10	10	7				
COc1nc(C)nc(NC(=O)NS(=O)(=O)c2cccc(N(OC)S(=O)(=O)C(C)C)n2)n1 [compound 41]		10					10					10	10	
COc1nc(C)nc(NC(=O)NS(=O)(=O)c2cccc(N(C(C)C)S(=O)(=O)C(C)Cl)n2)n1 (racemic) [compound 93]				9	9	9		10	10		9			degree of growth control, AM ([2]; 0.31 g/a active ingredient): 9; degree of growth control, OR (rice (Oryza sativa); 0.31 g/a active ingredient): 9
CCCN(c1cccc(S(=O)(=O)NC(=O)Nc2nc(C)nc(OC)n2)n1)S(=O)(=O)C(C)Cl (racemic) [compound 86]		10			10		10				10	10	10	
CCN(c1cccc(S(=O)(=O)NC(=O)Nc2nc(C)nc(OC)n2)n1)S(=O)(=O)C(C)C [Compound No. 1, 6-[(N-ethyl-N-isopropylsulfonyl)amino]-N-[[(4-methoxy-6-methyltriazin-2-yl)amino]carbonyl]-2-pyridinesulfonamide]	8		8	10						8				degree of growth control, TR (wheat (Triticum); 0.31 g/a active ingredient): 8; degree of growth control, AM ([2]; 0.31 g/a active ingredient): 10
CCN(c1cccc(S(=O)(=O)NC(=O)Nc2nc(OC)nc(OC)n2)n1)S(=O)(=O)C(Cl)Cl [Compound No. 57, 6-[(N-dichloromethylsulfonyl-N-ethyl)amino]-N-[[(4,6-dimethoxytriazine-2-yl)amino]carbonyl]-2-pyridinesulfonamide]	6		9		10			10	10	9	10			degree of growth control, TR (wheat (Triticum); 0.31 g/a active ingredient): 6
CCN(c1cccc(S(=O)(=O)NC(=O)Nc2nc(OC)nc(OC)n2)n1)S(=O)(=O)C(C)Cl (racemic) [Compound No. 55, 6-[[N-(1-chloroethylsulfonyl)-N-ethyl]amino]-N-[[(4,6-dimethoxytriazin-2-yl)amino]carbonyl]-2-pyridinesulfonamide]		10		6		9	10	10	10			10	10	degree of growth control, AM ([2]; 0.31 g/a active ingredient): 6; degree of growth control, SI ([4]; 0.31 g/a active ingredient): 6; degree of growth control, SI ([4]; 1.25 g/a active ingredient): 6; degree of growth control, OR (rice (Oryza sativa); 0.31 g/a active ingredient): 9
